Assay results reported in ChEMBL document CHEMBL3603789, “N-Lipidated Peptide Dimers: Effective Antibacterial Agents against Gram-Negative Pathogens through Lipopolysaccharide Permeabilization” (J Med Chem, 2015).
In brackets after ≈: the same amount, converted by molar mass. Activity calls are given as the source filed them. The calls are words filed in the database; no cut-off is given here. Bridge positions count the residues as written; N and C are the ends. Peptide text beside a SMILES is read from it. I, II: the chains in the order shown. * marks the point of attachment. Octanoyl = CCCCCCCC(=O)*; Hexanoyl = CCCCCC(=O)*

What was measured:
[1] = Toxicity in New Zealand white rabbit erythrocytes assessed as hemolytic activity after 60 mins; format: cell-based, Oryctolagus cuniculus; conditions: erythrocyte, 1 h
Klebsiella pneumoniae [2] = assay: Antibacterial activity against Klebsiella pneumoniae DM4299 after 24 hrs by broth microdilution method; format: functional; conditions: DM4299, 24 h
Pseudomonas aeruginosa [3] = assay: Antibacterial activity against Pseudomonas aeruginosa DM23155 after 24 hrs by broth microdilution method; format: functional; conditions: DM23155, 24 h
Escherichia coli [4] = assay: Antibacterial activity against Escherichia coli ATCC 25922 after 24 hrs by broth microdilution method; format: functional; conditions: ATCC 25922, 24 h
Pseudomonas aeruginosa [5] = assay: Antibacterial activity against Pseudomonas aeruginosa DR18531 after 24 hrs by broth microdilution method; format: functional; conditions: DR18531, 24 h
Pseudomonas aeruginosa [6] = assay: Antibacterial activity against Pseudomonas aeruginosa DM4150R after 24 hrs by broth microdilution method; format: functional
Pseudomonas aeruginosa [7] = assay: Antibacterial activity against Pseudomonas aeruginosa DM23257 after 24 hrs by broth microdilution method; format: functional; conditions: DM23257, 24 h
Pseudomonas aeruginosa [8] = assay: Antibacterial activity against Pseudomonas aeruginosa DM23376 after 24 hrs by broth microdilution method; format: functional; conditions: DM23376, 24 h
Pseudomonas aeruginosa [9] = assay: Antibacterial activity against Pseudomonas aeruginosa DU14476 after 24 hrs by broth microdilution method; format: functional; conditions: DU14476, 24 h
Pseudomonas aeruginosa [10] = assay: Antibacterial activity against Pseudomonas aeruginosa DR5790 after 24 hrs by broth microdilution method; format: functional; conditions: DR5790, 24 h
Pseudomonas aeruginosa [11] = assay: Antibacterial activity against Pseudomonas aeruginosa DR4877 after 24 hrs by broth microdilution method; format: functional; conditions: DR4877, 24 h
Pseudomonas aeruginosa [12] = assay: Antibacterial activity against Pseudomonas aeruginosa ATCC 9027 after 24 hrs by broth microdilution method; format: functional; conditions: ATCC 9027, 24 h
Pseudomonas aeruginosa [13] = assay: Antibacterial activity against Pseudomonas aeruginosa ATCC 27853 after 24 hrs by broth microdilution method; format: functional; conditions: ATCC 27853, 24 h
Lipopolysaccharide (LPS) [14] = assay: Displacement of dansylcadaverine from Escherichia coli 0111:B4 LPS at 15 to 30 uM after 5 mins by high-throughput fluorescence displacement assay
Lipopolysaccharide (LPS) [15] = assay: Induction of Escherichia coli 0111:B4 LPS neutralization using p-nitroaniline assessed as concentration required to neutralize 50% after 1 hr by limulus amebocyte lysate assay
Pseudomonas aeruginosa [16] = assay: Induction of cytoplasmic membrane disruption in Pseudomonas aeruginosa DM23155 assessed as membrane integrity at 1 to 2 times MIC after 1 hr by fluorescence assay; format: functional
[17] = Induction of calcein leakage from DOPE/DOPG artificial membrane at 1:32 ratio of compound to lipid by fluorescence assay; format: physicochemical
Pseudomonas aeruginosa [18] = assay: Antibacterial activity against Pseudomonas aeruginosa DM23155 assessed as log reduction of viable count at 2 times MIC after 30 mins by time-kill assay relative to control; format: functional
Escherichia coli [19] = assay: Antibacterial activity against Escherichia coli DS17232 after 24 hrs by broth microdilution method; format: functional; conditions: DS17232, 24 h
Escherichia coli [20] = assay: Antibacterial activity against Escherichia coli DM17528 after 24 hrs by broth microdilution method; format: functional; conditions: DM17528, 24 h
Klebsiella pneumoniae [21] = assay: Antibacterial activity against Klebsiella pneumoniae DS07955 after 24 hrs by broth microdilution method; format: functional; conditions: DS07955, 24 h
Klebsiella pneumoniae [22] = assay: Antibacterial activity against Klebsiella pneumoniae DS16260 after 24 hrs by broth microdilution method; format: functional; conditions: DS16260, 24 h
Klebsiella pneumoniae [23] = assay: Antibacterial activity against Klebsiella pneumoniae DU31158 after 24 hrs by broth microdilution method; format: functional; conditions: DU31158, 24 h
Klebsiella pneumoniae [24] = assay: Antibacterial activity against Klebsiella pneumoniae DB55301 after 24 hrs by broth microdilution method; format: functional; conditions: DB55301, 24 h
Pseudomonas aeruginosa [25] = assay: Antibacterial activity against Pseudomonas aeruginosa DM23155 after 24 hrs by checkerboard assay in presence of nalidixic acid; format: functional
Pseudomonas aeruginosa [26] = assay: Antibacterial activity against Pseudomonas aeruginosa DM23155 after 24 hrs by checkerboard assay in presence of gentamicin; format: functional
Pseudomonas aeruginosa [27] = assay: Antibacterial activity against Pseudomonas aeruginosa DM23155 after 24 hrs by checkerboard assay in presence of erythromycin; format: functional
Pseudomonas aeruginosa [28] = assay: Antibacterial activity against Pseudomonas aeruginosa DM23155 after 24 hrs by checkerboard assay in presence of streptomycin; format: functional
Pseudomonas aeruginosa [29] = assay: Antibacterial activity against Pseudomonas aeruginosa DM23155 after 24 hrs by checkerboard assay in presence of kanamycin; format: functional
Escherichia coli [30] = assay: Antibacterial activity against Escherichia coli ATCC 25922 after 24 hrs by checkerboard assay in presence of nalidixic acid; format: functional
Escherichia coli [31] = assay: Antibacterial activity against Escherichia coli ATCC 25922 after 24 hrs by checkerboard assay in presence of gentamicin; format: functional
Escherichia coli [32] = assay: Antibacterial activity against Escherichia coli ATCC 25922 after 24 hrs by checkerboard assay in presence of erythromycin; format: functional
Escherichia coli [33] = assay: Antibacterial activity against Escherichia coli ATCC 25922 after 24 hrs by checkerboard assay in presence of streptomycin; format: functional
Escherichia coli [34] = assay: Antibacterial activity against Escherichia coli ATCC 25922 after 24 hrs by checkerboard assay in presence of kanamycin; format: functional
Pseudomonas aeruginosa [35] = assay: Induction of 1-N-phenylnaphthylamine uptake in Pseudomonas aeruginosa DM23155 at 400 uM after 1 hr by fluorescence assay relative to polymyxin B; format: functional
Pseudomonas aeruginosa [36] = assay: Induction of cytoplasmic membrane depolarization in Pseudomonas aeruginosa DM23155 at 4 times MIC after 1 hr by fluorescence assay; format: functional, organism-based
[37] = Induction of calcein leakage from DOPC artificial membrane at 1:32 ratio of compound to lipid by fluorescence assay; format: physicochemical
Pseudomonas aeruginosa [38] = assay: Antibacterial activity against Pseudomonas aeruginosa DM23155 assessed as log reduction of viable count MIC up to 24 hrs by time-kill assay; format: functional, organism-based
Pseudomonas aeruginosa [39] = assay: Antibacterial activity against Pseudomonas aeruginosa DM23155 assessed as log reduction of viable count at 1 to 2 times MIC by time-kill assay relative to control; format: functional, organism-based
Pseudomonas aeruginosa [40] = assay: Antibacterial activity against Pseudomonas aeruginosa DM23155 assessed as log reduction of viable count at 1 to 2 times MIC after 24 hrs by time-kill assay; format: functional, organism-based

Compound | HC10 [1] | MIC (Klebsiella pneumoniae [2]) | MIC (Pseudomonas aeruginosa [3]) | MIC (Escherichia coli [4]) | MIC (Pseudomonas aeruginosa [5]) | MIC (Pseudomonas aeruginosa [6]) | MIC (Pseudomonas aeruginosa [7]) | MIC (Pseudomonas aeruginosa [8]) | Activity (Lipopolysaccharide (LPS) [14]) | EC50 (Lipopolysaccharide (LPS) [15]) | fractional inhibitory concentration index (FICI) (Pseudomonas aeruginosa [25]) | fractional inhibitory concentration index (FICI) (Pseudomonas aeruginosa [26]) | fractional inhibitory concentration index (FICI) (Pseudomonas aeruginosa [27]) | fractional inhibitory concentration index (FICI) (Pseudomonas aeruginosa [28]) | fractional inhibitory concentration index (FICI) (Pseudomonas aeruginosa [29]) | fractional inhibitory concentration index (FICI) (Escherichia coli [30]) | fractional inhibitory concentration index (FICI) (Escherichia coli [31]) | fractional inhibitory concentration index (FICI) (Escherichia coli [32]) | fractional inhibitory concentration index (FICI) (Escherichia coli [33]) | fractional inhibitory concentration index (FICI) (Escherichia coli [34]) | also measured
CC(C)[C@H](NC(=O)[C@H](CCCCN)NC(=O)[C@H](CCCNC(=N)N)NC(=O)CNC(=O)[C@@H](N)CCCNC(=N)N)C(=O)N[C@H](C(=O)N[C@@H](CCCNC(=N)N)C(=O)N[C@@H](CCCNC(=N)N)C(=O)NCCCC[C@H](NC(=O)[C@H](CCCNC(=N)N)NC(=O)[C@H](CCCNC(=N)N)NC(=O)[C@@H](NC(=O)[C@@H](NC(=O)[C@H](CCCCN)NC(=O)[C@H](CCCNC(=N)N)NC(=O)CNC(=O)[C@@H](N)CCCNC(=N)N)C(C)C)C(C)C)C(=O)N[C@@H](CCCCN)C(=O)O)C(C)C (I: H-RGRKVVRRKK-OH / II: H-RGRKVVRR; amide I:9-II:C) | > 10000 µg/mL | 6 µM (≈ 13.7 µg/mL) | 6 µM (≈ 13.7 µg/mL) | 3 µM (≈ 6.87 µg/mL) | 3 µM (≈ 6.87 µg/mL) | 3 µM (≈ 6.87 µg/mL) | 3 µM (≈ 6.87 µg/mL) | 6 µM (≈ 13.7 µg/mL) | 82.4% | > 1000 µM | – | – | – | – | – | – | – | – | – | – | MIC (Pseudomonas aeruginosa [9]): 6 µM (≈ 13.7 µg/mL); MIC (Pseudomonas aeruginosa [10]): 10 µM (≈ 22.9 µg/mL); MIC (Pseudomonas aeruginosa [11]): 6 µM (≈ 13.7 µg/mL); MIC (Pseudomonas aeruginosa [12]): 6 µM (≈ 13.7 µg/mL); MIC (Pseudomonas aeruginosa [13]): 6 µM (≈ 13.7 µg/mL); Activity (Pseudomonas aeruginosa [16]): >80%; Activity [17]: Active; Activity (Pseudomonas aeruginosa [18]): inactive
CCCCCC(=O)N[C@@H](CCCNC(=N)N)C(=O)NCC(=O)N[C@@H](CCCNC(=N)N)C(=O)N[C@@H](CCCCN)C(=O)N[C@H](C(=O)N[C@H](C(=O)N[C@@H](CCCNC(=N)N)C(=O)N[C@@H](CCCNC(=N)N)C(=O)NCCCC[C@H](NC(=O)[C@H](CCCNC(=N)N)NC(=O)[C@H](CCCNC(=N)N)NC(=O)[C@@H](NC(=O)[C@@H](NC(=O)[C@H](CCCCN)NC(=O)[C@H](CCCNC(=N)N)NC(=O)CNC(=O)[C@H](CCCNC(=N)N)NC(=O)CCCCC)C(C)C)C(C)C)C(=O)N[C@@H](CCCCN)C(=O)O)C(C)C)C(C)C (I: Hexanoyl-RGRKVVRRKK-OH / II: Hexanoyl-RGRKVVRR; amide I:9-II:C) | > 10000 µg/mL | 6 µM (≈ 14.9 µg/mL) | 6 µM (≈ 14.9 µg/mL) | 3 µM (≈ 7.46 µg/mL) | – | – | – | – | 100% | 187 µM | 0.38 | 0.25 | 0.38 | 0.38 | 0.31 | 0.5 | 0.38 | 0.38 | 0.38 | 0.5 | MIC (Escherichia coli [19]): 10 µM (≈ 24.9 µg/mL); MIC (Escherichia coli [20]): 10 µM (≈ 24.9 µg/mL); MIC (Klebsiella pneumoniae [21]): 10 µM (≈ 24.9 µg/mL); MIC (Klebsiella pneumoniae [22]): 3 µM (≈ 7.46 µg/mL); MIC (Klebsiella pneumoniae [23]): 10 µM (≈ 24.9 µg/mL); MIC (Klebsiella pneumoniae [24]): 10 µM (≈ 24.9 µg/mL); Activity (Pseudomonas aeruginosa [16]): >80%; Activity [17]: Active
CCCCCC(=O)N[C@@H](CCCNC(=N)N)C(=O)NCC(=O)N[C@@H](CCCNC(=N)N)C(=O)N[C@@H](CCCCN)C(=O)NCC(=O)NCC(=O)N[C@@H](CCCNC(=N)N)C(=O)N[C@@H](CCCNC(=N)N)C(=O)NCCCC[C@H](NC(=O)[C@H](CCCNC(=N)N)NC(=O)[C@H](CCCNC(=N)N)NC(=O)CNC(=O)CNC(=O)[C@H](CCCCN)NC(=O)[C@H](CCCNC(=N)N)NC(=O)CNC(=O)[C@H](CCCNC(=N)N)NC(=O)CCCCC)C(=O)N[C@@H](CCCCN)C(=O)O (I: Hexanoyl-RGRKGGRRKK-OH / II: Hexanoyl-RGRKGGRR; amide I:9-II:C) | > 10000 µg/mL | 3 µM (≈ 6.96 µg/mL) | 3 µM (≈ 6.96 µg/mL) | 3 µM (≈ 6.96 µg/mL) | – | – | – | – | 86.4% | 413 µM | 0.63 | 0.31 | 0.56 | 0.5 | 0.5 | 0.75 | 0.56 | 0.75 | 0.38 | 0.5 | Activity (Pseudomonas aeruginosa [35]): 10.5%
CCCCCCCC(=O)N[C@@H](CCCNC(=N)N)C(=O)NCC(=O)N[C@@H](CCCNC(=N)N)C(=O)N[C@@H](CCCCN)C(=O)NCC(=O)NCC(=O)N[C@@H](CCCNC(=N)N)C(=O)N[C@@H](CCCNC(=N)N)C(=O)NCCCC[C@H](NC(=O)[C@H](CCCNC(=N)N)NC(=O)[C@H](CCCNC(=N)N)NC(=O)CNC(=O)CNC(=O)[C@H](CCCCN)NC(=O)[C@H](CCCNC(=N)N)NC(=O)CNC(=O)[C@H](CCCNC(=N)N)NC(=O)CCCCCCC)C(=O)N[C@@H](CCCCN)C(=O)O (I: Octanoyl-RGRKGGRRKK-OH / II: Octanoyl-RGRKGGRR; amide I:9-II:C) | > 10000 µg/mL | 3 µM (≈ 7.12 µg/mL) | 3 µM (≈ 7.12 µg/mL) | 3 µM (≈ 7.12 µg/mL) | 3 µM (≈ 7.12 µg/mL) | 3 µM (≈ 7.12 µg/mL) | 6 µM (≈ 14.2 µg/mL) | 3 µM (≈ 7.12 µg/mL) | 112% | 117 µM | 0.56 | 0.38 | 0.38 | 0.56 | 0.56 | 0.56 | 0.38 | 1 | 0.5 | 0.56 | MIC (Pseudomonas aeruginosa [9]): 3 µM (≈ 7.12 µg/mL); MIC (Pseudomonas aeruginosa [10]): 3 µM (≈ 7.12 µg/mL); MIC (Pseudomonas aeruginosa [11]): 3 µM (≈ 7.12 µg/mL); MIC (Pseudomonas aeruginosa [12]): 3 µM (≈ 7.12 µg/mL); MIC (Pseudomonas aeruginosa [13]): 3 µM (≈ 7.12 µg/mL); Activity (Pseudomonas aeruginosa [35]): 20%; Activity (Pseudomonas aeruginosa [36]): Active; Activity [37]: Active; FC (Pseudomonas aeruginosa [18]): 3; Activity (Pseudomonas aeruginosa [38]): Dose-dependent effect; Activity (Pseudomonas aeruginosa [39]): Active; Activity (Pseudomonas aeruginosa [40]): Active
